In US20210108191A1, “Methods of Production of Biologically Active Lasso Peptides” (The Board of Trustees of the University of Illinois, priority 2017, published 2021):
Bridges are numbered along the chain shown (N, C = ends). Where no end group is shown, it is not given here.

Test system: several pathogenic bacteria
Test: activity against pathogenic bacteria
Type: cell-based
Source text: RODEO can be used to assist in identifying lasso peptide gene clusters (FIG. 2). […] Several new lasso peptides have been characterized. (FIG. 3B-C). […] RODEO provides a roadmap for the discovery of new RiPPs and lasso peptide biosynthetic enzymology.

## LP2006: rare disulfide-containing, class IV lasso peptide (SEQ ID NO:6) from Nocardiopsis alba (GRPNWGFENDWSCVRVC; disulfide 13-17 (inferred); also: lasso topology, ring places not given here)
  activity against pathogenic bacteria: active against several pathogenic bacteria
